In the supplement of paper PMC10307832:

How the values were obtained:
Experiment in all cases: relative viability (nuclei count vs DMSO), 5 days (fraction); higher = more cells survive
CUDC-101 + Foretinib = compound: C#Cc1cccc(Nc2ncnc3cc(OC)c(OCCCCCCC(=O)NO)cc23)c1 [CUDC-101] + COc1cc2c(Oc3ccc(NC(=O)C4(C(=O)Nc5ccc(F)cc5)CC4)cc3F)ccnc2cc1OCCCN1CCOCC1 [Foretinib] (partner 0.25 µM)
Outline: (§1)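 Lung cancer cell lines were seeded in 1536-well plates and dosed by pin tool the next day, with either a single drug or a fixed anchor-drug dose combined with five library-drug doses (not always all listed) spaced in √10 steps. Five days later, one step fixed the cells and stained their nuclei (final 0.05% Triton X-100, 1% formaldehyde, 1 ug/ml Hoechst), and nuclei were counted on 4× images. Relative viability is the nuclei count in treated wells divided by the count in vehicle wells, and each value is the median of duplicate plates.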

CUDC-101 + OSI-027 = compound: C#Cc1cccc(Nc2ncnc3cc(OC)c(OCCCCCCC(=O)NO)cc23)c1 [CUDC-101] + COc1cccc2cc(-c3nc([C@H]4CC[C@H](C(=O)O)CC4)n4ncnc(N)c34)[nH]c12 [OSI-027] (partner 0.5 µM)
Outline: as §1

CUDC-101 + Alpelisib = compound: C#Cc1cccc(Nc2ncnc3cc(OC)c(OCCCCCCC(=O)NO)cc23)c1 [CUDC-101] + Cc1nc(NC(=O)N2CCC[C@H]2C(N)=O)sc1-c1ccnc(C(C)(C)C(F)(F)F)c1 [Alpelisib] (partner 2 µM)
Outline: as §1

Vandetanib + Pictilisib = compound: COc1cc2/c(=N/c3ccc(Br)cc3F)nc[nH]c2cc1OCC1CCN(C)CC1 [Vandetanib] + CS(=O)(=O)N1CCN(Cc2cc3nc(-c4cccc5[nH]ncc45)nc(N4CCOCC4)c3s2)CC1 [Pictilisib] (partner 1 µM)
Outline: as §1

With UMC-11 as the cell line, how does the relative viability (CUDC-101 + Foretinib; first compound 0.01 µM) read?
Its relative viability is 1.06.

And the relative viability (CUDC-101 + Foretinib; first compound 0.03162 µM)?
Its relative viability is 1.03.

What about the relative viability (CUDC-101 + Foretinib; first compound 0.1 µM) of the same cell line?
The relative viability was 0.945.

And the relative viability (CUDC-101 + Foretinib; first compound 0.3162 µM)?
Its relative viability is 0.317.

And the relative viability (CUDC-101 + Foretinib; first compound 1 µM)?
The relative viability was 0.106.

What about the relative viability (CUDC-101 + OSI-027; first compound 0.01 µM) of the same cell line?
Its relative viability is 0.505.

What about the relative viability (CUDC-101 + OSI-027; first compound 0.03162 µM) of the same cell line?
Its relative viability is 0.521.

What about the relative viability (CUDC-101 + OSI-027; first compound 0.1 µM) of the same cell line?
The relative viability was 0.426.

And the relative viability (CUDC-101 + OSI-027; first compound 0.3162 µM)?
Its relative viability is 0.172.

What about the relative viability (CUDC-101 + OSI-027; first compound 1 µM) of the same cell line?
The relative viability was 0.105.

And the relative viability (CUDC-101 + Alpelisib; first compound 0.01 µM)?
Its relative viability is 1.24.

What about the relative viability (CUDC-101 + Alpelisib; first compound 0.03162 µM) of the same cell line?
The relative viability was 0.902.

And the relative viability (CUDC-101 + Alpelisib; first compound 0.1 µM)?
Its relative viability is 0.779.

And the relative viability (CUDC-101 + Alpelisib; first compound 0.3162 µM)?
The relative viability was 0.395.

What about the relative viability (CUDC-101 + Alpelisib; first compound 1 µM) of the same cell line?
Its relative viability is 0.123.

What about the relative viability (Vandetanib + Pictilisib; first compound 0.02 µM) of the same cell line?
Its relative viability is 0.75.

And the relative viability (Vandetanib + Pictilisib; first compound 0.06325 µM)?
Its relative viability is 0.78.

And the relative viability (Vandetanib + Pictilisib; first compound 0.2 µM)?
The relative viability was 0.694.

What about the relative viability (Vandetanib + Pictilisib; first compound 0.6325 µM) of the same cell line?
The relative viability was 0.667.

And the relative viability (Vandetanib + Pictilisib; first compound 2 µM)?
The relative viability was 0.857.
